Data published in patent publication US8057990B2, “Screening method” (Takeda Pharmaceutical Company Limited, priority 2005, dated 2011).

Columns and labels:
[1] = biological target: T1, human GPR30 (Homo sapiens, UniProt Q99527, P21A/Q20H); details: human GPR30 expression CHO cells; tacrine 0.67-67 μM; Fluo 3-AM
Protocol: 200 μl of each type of cells was planted in each well of a 96-well plate for FLIPR (Black plate clear bottom, Coster) using an 8-channel pipette (3.0×10^4 cells/200 μl/well) and cultured in a 5% CO2 incubator at 37° C. overnight (hereinafter, referred to as the “cell plate”) before use. 20 ml of H/HBSS, 200 μl of 250 mM Probenecid, and 200 μl of fetal bovine serum (FBS) were mixed. 2 vials (50 μg) of Fluo 3-AM (Dojindo Laboratories) were lysed in […] of dimethylsulfoxide and 40 μl of 20% Pluronic acid (Molecular Probes), and the resultant substance was added to H/HBSS-Probenecid-FBS and mixed. Then, the resultant mixture was divided into units of 100 μl and put to each well of the cell plate deprived of the culture fluid using an 8-channel pipette, and incubated in a 5% CO2 incubator at 37° C. for 1 hour (colorant loading). 8 μl of a tacrine solution (Aldrich Chemical Company) of various concentrations was added to 259 μl of H/HBSS containing 2.5 mM Probenecid, 0.1% CHAPS and 0.1% BSA, and diluted. […] The cell plate and the sample plate were set in an FLIPR (501 of sample was transferred from the sample plate to the cell plate by the FLIPR), and a change of the fluorescent intensity was measured over-time. Thus, the intracellular calcium ion concentration increase activity was measured.

[2] = tested on: HeLa cells not expressing human GPR30; details: pAKKO-1.11H-transfected control HeLa cells; tacrine 100 μM; 4 hours
Protocol: (§1) Separately, a reporter plasmid of pSRE-Luc (Invitrogen) ligated with a luciferase gene as a reporter at a downstream position of a serum response element (SRE), and expression vector plasmids for human GαoA, human Gβ1 and human Gγ2, which are each a kind of G proteins, were prepared in substantially the same manner. HeLa cells were used as host cells for transfecting the G protein-coupled receptor protein expression plasmid pAK-hGPR30 and the reporter plasmids. The cells were planted on a 384-well assay plate (COSTAR 3704) at a ratio of 4000 cells/well in a culture volume of 25 μl, and incubated overnight. As the medium, DMEM (Invitrogen) supplemented with 10% fetal bovine serum and 1% MEM non-essential amino acids solution (DMEM/NEAA) was used. Each plasmid was diluted to a concentration of 240 ng/μl. Plasmids were added to 250 μl of Opti-MEM-I (Invitrogen) at a ratio of 1 μl of pAK-hGPR30, 9 μl of the reporter plasmid, and 1 μl of each of the G protein expression plasmids for GαoA, Gβ1 and Gγ2. […] After the cells were lysed and thoroughly mixed with the substrate, the chemiluminescence level corresponding to the expression induction level of the reporter gene in each well was measured on a plate reader (EnVision™, Perkin Elmer).

[3] = biological target: T1, human GPR30; details: GPR30 expression HeLa cells; tacrine 100 μM; 4 hours
Protocol: as §1

[4] = biological target: rat GPR30 (Rattus norvegicus, UniProt O08878, S320N); details: rat GPR30 expression CHO cells; tacrine 0.67-67 μM; Fluo 3-AM
rat GPR30, sequence (O08878 whole entry S320N): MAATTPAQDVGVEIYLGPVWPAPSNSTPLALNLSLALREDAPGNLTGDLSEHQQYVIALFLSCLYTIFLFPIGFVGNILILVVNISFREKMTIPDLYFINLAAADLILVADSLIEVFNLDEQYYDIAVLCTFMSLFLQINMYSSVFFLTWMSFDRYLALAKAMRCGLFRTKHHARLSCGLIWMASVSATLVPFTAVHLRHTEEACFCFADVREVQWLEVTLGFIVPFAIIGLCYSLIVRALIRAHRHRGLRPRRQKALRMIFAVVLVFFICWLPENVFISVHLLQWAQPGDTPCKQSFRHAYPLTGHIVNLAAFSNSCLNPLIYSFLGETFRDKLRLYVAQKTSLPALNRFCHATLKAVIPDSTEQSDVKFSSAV
Protocol: The plasmid pAK-rGPR30 was transduced by electroporation into CHO/dhfr^− cells (American Type Culture Collection) in the method described in REFERENCE EXAMPLE 1, and transformed CHO cells expressing rat GPR30 (hereinafter, referred to simply as “rat GPR30 cells”) at a high ratio were selected.
200 μl of each type of cells was planted in each well of a 96-well plate for FLIPR (Black plate clear bottom, Coster) using an 8-channel pipette (3.0×10^4 cells/200 μl/well) and cultured in a 5% CO2 incubator at 37° C. overnight (hereinafter, referred to as the “cell plate”) before use. 20 ml of H/HBSS, 200 μl of 250 mM Probenecid, and 200 μl of fetal bovine serum (FBS) were mixed. 2 vials (50 μg) of Fluo 3-AM (Dojindo Laboratories) were lysed in […] of dimethylsulfoxide and 40 μl of 20% Pluronic acid (Molecular Probes), and the resultant substance was added to H/HBSS-Probenecid-FBS and mixed. […] The cell plate and the sample plate were set in an FLIPR (501 of sample was transferred from the sample plate to the cell plate by the FLIPR), and a change of the fluorescent intensity was measured over-time. Thus, the intracellular calcium ion concentration increase activity was measured.

T1 sequence (Q99527 whole entry Q20H/P21A): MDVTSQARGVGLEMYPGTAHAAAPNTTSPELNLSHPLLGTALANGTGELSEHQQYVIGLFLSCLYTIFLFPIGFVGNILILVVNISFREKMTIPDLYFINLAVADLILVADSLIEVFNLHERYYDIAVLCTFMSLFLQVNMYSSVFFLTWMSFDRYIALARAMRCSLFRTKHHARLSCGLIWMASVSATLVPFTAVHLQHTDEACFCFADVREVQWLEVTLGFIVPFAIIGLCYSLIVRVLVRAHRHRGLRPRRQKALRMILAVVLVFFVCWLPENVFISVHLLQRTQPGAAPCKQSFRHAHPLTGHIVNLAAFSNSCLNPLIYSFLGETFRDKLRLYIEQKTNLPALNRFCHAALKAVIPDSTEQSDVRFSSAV

Structure (SMILES): Nc1c2c(nc3ccccc13)CCCC2 [tacrine, 1,2,3,4-tetrahydro-9-acridinamine]
- intracellular calcium ion concentration (change of fluorescent intensity, FLIPR) [1]: increased in a concentration-depending manner
- luciferase activity (pSRE-Luc reporter) [2]: no significant activity increase
- luciferase activity (pSRE-Luc reporter) [3]: significant increase
- intracellular calcium ion concentration (change of fluorescent intensity, FLIPR) [4]: increased in a concentration-depending manner
